The subject of the assay is Hepatitis C replicon. Put plainly: HCV replicon assay (NPT ELISA readout) in Huh-7 replicon-containing cells. The settings on record: Hepatitis C virus, 72 h; HCV replicon in Huh-7 cells, three days incubation. In kind it is cell-based, Hepatitis C virus. The method, boiled down:
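Huh-7 cells carrying a neo-containing HCV subgenomic replicon (NS3-NS5B) were plated overnight, then exposed to compound (generally 6 concentrations, 10 to 0.03 μM) for three days at 37 °C. Replication was read as NPT level by captured ELISA; interferon alpha served as positive control.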

We go through 14 compounds from US8697641B2, “4-amino-4-oxobutanoyl peptide cyclic analogues, inhibitors of viral replication” (Achillion Pharmaceuticals, Inc., priority 2008, dated 2014).

A word on the EC50: it is the concentration needed to bring the measured effect to its halfway point. Low values mean an effect from little substance, high ones a need for much substance.

In turn, `COc1ccc2c(O[C@@H]3C[C@H]4C(=O)N[C@]5(C(=O)NS(=O)(=O)C6CC6)C[C@H]5/C=C\CCCCC[C@H](CC(=O)N5CC[C@H](N)C5)C(=O)N4C3)cc(-c3ccccc3)nc2c1` [Compound 102, (2R,6R,14aR,16aS, Z)-6-(2-((S)-3-aminopyrrolidin-1-yl)-2-oxoethyl)-N-(cyclopropylsulfonyl)-2-(7-methoxy-2-phenylquinolin-4-yloxy)-5,16-dioxo-1,2,3,5,6,7,8,9,10,11, 13a,14,14a,15,16,16a-hexadecahydrocyclopropa [e]pyrrolo[1,2-a][1,4] diazacyclopentadecine-14a-carboxamide] yielded an EC50 of less than 1 µM.

The compound `COc1ccc2c(O[C@@H]3C[C@H]4C(=O)N[C@]5(C(=O)NS(=O)(=O)C6CC6)CC5/C=C\CCCCC[C@H](CC(=O)N5CC[C@@H](CNC(=O)OC(C)(C)C)C5)C(=O)N4C3)cc(-c3ccccc3)nc2c1` (stereo partly drawn) [Compound 103, tert-butyl ((3S)-1-(2-((2R,6R,14aR,16aS,Z)-14a-(cyclopropylsulfonyl-carbamoyl)-2-(7-methoxy-2-phenylquinolin-4-yloxy)-5,16-dioxo-1,2,3,5,6,7,8,9,10,11, 13a,14,14a,15,16,16a-hexadecahydrocyclopropa [e]pyrrolo[1,2-a][1,4]diazacyclopentadecin-6-yl)acetyl)pyrrolidin-3-yl)methylcarbamate] yielded a concentration giving a half-maximal response (EC50) of less than 1 µM.

As for `COc1ccc2c(O[C@@H]3C[C@H]4C(=O)N[C@]5(C(=O)NS(=O)(=O)C6CC6)C[C@H]5/C=C\CCCCC[C@H](CC(=O)N5CC[C@@H](CN)C5)C(=O)N4C3)cc(-c3ccccc3)nc2c1` [Compound 105, (2R,6R,14aR,16aS, Z)-6-(2-((S)-3-(aminomethyl)pyrrolidin-1-yl)-2-oxoethyl)-N-(cyclopropylsulfonyl)-2-(7-methoxy-2-phenylquinolin-4-yloxy)-5,16-dioxo-1,2,3,5,6,7,8,9,10,11, 13a,14,14a,15,16,16a-hexadecahydrocyclopropa [e]pyrrolo[1,2-a][1,4] diazacyclopentadecine-14a-carboxamide], the 50% effective concentration (EC50) is less than 1 µM.

Compound `COc1ccc2c(O[C@@H]3C[C@H]4C(=O)N[C@]5(C(=O)NS(=O)(=O)C6CC6)C[C@H]5/C=C\CCCCC[C@H](CC(=O)N5CC[C@@H](N)C5)C(=O)N4C3)cc(-c3ccccc3)nc2c1` [Compound 106, (2R,6R,14aR,16aS, Z)-6-(2-((R)-3-aminopyrrolidin-1-yl)-2-oxoethyl)-N-(cyclopropylsulfonyl)-2-(7-methoxy-2-phenylquinolin-4-yloxy)-5,16-dioxo-1,2,3,5,6,7,8,9,10,11, 13a,14,14a,15,16,16a-hexadecahydrocyclopropa [e]pyrrolo[1,2-a][1,4] diazacyclopentadecine-14a-carboxamide] gave an EC50 of less than 1 µM.

In the case of `COc1ccc2c(O[C@@H]3C[C@H]4C(=O)N[C@]5(C(=O)NS(=O)(=O)C6CC6)C[C@H]5/C=C\CCCCC[C@H](CC(=O)N5CC[C@@H](C(C)(C)N)C5)C(=O)N4C3)cc(-c3ccccc3)nc2c1` [Compound 107, (2R,6R,14aR,16aS, Z)-6-(2-((R)-3-(2-aminopropan-2-yl)pyrrolidin-1-yl)-2-oxoethyl)-N-(cyclopropylsulfonyl)-2-(7-methoxy-2-phenylquinolin-4-yloxy)-5,16-dioxo-1,2,3,5,6,7,8,9,10,11, 13a,14,14a,15,16,16a-hexadecahydrocyclopropa [e]pyrrolo[1,2-a][1,4] diazacyclopentadecine-14a-carboxamide], the concentration giving a half-maximal response (EC50) is less than 1 µM.

`COc1ccc2c(O[C@@H]3C[C@H]4C(=O)N[C@]5(C(=O)NS(=O)(=O)C6CC6)C[C@H]5/C=C\CCCCC[C@H](CC(=O)N5CC[C@H](O)C5)C(=O)N4C3)cc(-c3ccccc3)nc2c1` [Compound 108, (2R,6R,14aR,16aS,Z)-N-(cyclopropylsulfonyl)-6-(2-((S)-3-hydroxypyrrolidin-1-yl)-2-oxoethyl)-2-(7-methoxy-2-phenylquinolin-4-yloxy)-5,16-dioxo-1,2,3,5,6,7,8,9,10,11, 13a,14,14a,15,16,16a-hexadecahydrocyclopropa [e]pyrrolo[1,2-a][1,4] diazacyclopentadecine-14a-carboxamide] showed an EC50 of less than 1 µM.

Take `COc1ccc2c(O[C@@H]3C[C@H]4C(=O)N[C@]5(C(=O)NS(=O)(=O)C6CC6)C[C@H]5/C=C\CCCCC[C@H](CC(=O)N[C@@H]5CCNC5)C(=O)N4C3)cc(-c3ccccc3)nc2c1` [Compound 109, (2R,6R,14aR,16aS,Z)-N-(cyclopropylsulfonyl)-2-(7-methoxy-2-phenylquinolin-4-yloxy)-5,16-dioxo-6-(2-oxo-2-((R)-pyrrolidin-3-ylamino)ethyl)-1,2,3,5,6,7,8,9,10,11, 13a,14,14a,15,16,16a-hexadecahydrocyclopropa [e]pyrrolo[1,2-a][1,4] diazacyclopentadecine-14a-carboxamide]: the EC50 was less than 1 µM.

`CO/N=C1\CN(C(=O)C[C@H]2CCCCC/C=C\[C@@H]3C[C@@]3(C(=O)NS(=O)(=O)C3CC3)NC(=O)[C@@H]3C[C@@H](Oc4cc(-c5ccccc5)nc5cc(OC)ccc45)CN3C2=O)CC1(C)CN` (stereo partly drawn) [Compound 110, (2R,6R,14aR,16aS,Z)-6-(2-((Z)-3-(aminomethyl)-4-(methoxyimino)-3-methylpyrrolidin-1-yl)-2-oxoethyl)-N-(cyclopropylsulfonyl)-2-(7-methoxy-2-phenylquinolin-4-yloxy)-5,16-dioxo-1,2,3,5,6,7,8,9,10,11, 13a,14,14a,15,16,16a-hexadecahydrocyclopropa [e]pyrrolo[1,2-a][1,4] diazacyclopentadecine-14a-carboxamide] returned a concentration giving a half-maximal response (EC50) of less than 1 µM.

`COc1ccc2c(O[C@@H]3C[C@H]4C(=O)N[C@]5(C(=O)NS(=O)(=O)C6CC6)C[C@H]5/C=C\CCCCC[C@H](CC(=O)N5CC[C@H](C(C)(C)N)C5)C(=O)N4C3)cc(-c3ccccc3)nc2c1` [Compound 111, (2R,6R,14aR,16aS,Z)-6-(2-((S)-3-(2-aminopropan-2-yl)pyrrolidin-1-yl)-2-oxoethyl)-N-(cyclopropylsulfonyl)-2-(7-methoxy-2-phenylquinolin-4-yloxy)-5,16-dioxo-1,2,3,5,6,7,8,9,10,11, 13a,14,14a,15,16,16a-hexadecahydrocyclopropa [e]pyrrolo[1,2-a][1,4] diazacyclopentadecine-14a-carboxamide]: the EC50 was less than 1 µM.

For `O=C1N[C@]2(C(=O)NS(=O)(=O)C3CC3)C[C@H]2/C=C\CCCCC[C@H](CC(=O)N2CCCCC2)C(=O)N2C[C@H](OC(=O)N3CCc4ccccc4C3)C[C@@H]12` [Compound 112, (2R,6R,14aR, 16aS,Z)-14a-(cyclopropylsulfonyl-carbamoyl)-5,16-dioxo-6-(2-oxo-2-(piperidin-1-yl)ethyl)-1,2,3,5,6,7,8,9,10,11, 13a,14,14a,15,16,16a-hexadecahydrocyclopropa [e]pyrrolo[1,2-a][1,4] diazacyclopentadecin-2-yl 3,4-dihydroisoquinoline-2(1H)-carboxylate], the half-maximal effective concentration (EC50) was less than 1 µM.

With `O=C1N[C@]2(C(=O)NS(=O)(=O)C3CC3)C[C@H]2/C=C\CCCCC[C@H](CC(=O)N2CCCC(F)(F)C2)C(=O)N2C[C@H](OC(=O)N3CCc4ccccc4C3)C[C@@H]12` [Compound 113, (2R,6R,14aR, 16aS,Z)-14a-(cyclopropylsulfonyl-carbamoyl)-6-(2-(3,3-difluoropiperidin-1-yl)-2-oxoethyl)-5,16-dioxo-1,2,3,5,6,7,8,9,10,11, 13a,14,14a,15,16,16a-hexadecahydrocyclopropa [e]pyrrolo[1,2-a][1,4] diazacyclopentadecin-2-yl 3,4-dihydroisoquinoline-2(1H)-carboxylate], the EC50 is less than 1 µM.

Compound `O=C1N[C@]2(C(=O)NS(=O)(=O)C3CC3)C[C@H]2/C=C\CCCCC[C@H](CC(=O)N2CCC(F)(F)C2)C(=O)N2C[C@H](OC(=O)N3CCc4ccccc4C3)C[C@@H]12` [Compound 114, (2R,6R,14aR, 16aS,Z)-14a-(cyclopropylsulfonyl-carbamoyl)-6-(2-(3,3-difluoropyrrolidin-1-yl)-2-oxoethyl)-5,16-dioxo-1,2,3,5,6,7,8,9,10,11, 13a,14,14a,15,16,16a-hexadecahydrocyclopropa [e]pyrrolo[1,2-a][1,4] diazacyclopentadecin-2-yl 3,4-dihydroisoquinoline-2(1H)-carboxylate] came in with a concentration for a half-maximal effect (EC50) of less than 1 µM.

Compound `O=C1N[C@]2(C(=O)NS(=O)(=O)C3CC3)CC2/C=C\CCCCC[C@H](CC(=O)N2CCC(C(F)(F)F)CC2)C(=O)N2C[C@H](OC(=O)N3CCc4ccccc4C3)C[C@@H]12` (stereo partly drawn) [Compound 115, (2R,6R,14aR, 16aS,Z)-14a-(cyclopropylsulfonyl-carbamoyl)-5,16-dioxo-6-(2-oxo-2-(4-(trifluoromethyl)piperidin-1-yl)ethyl)-1,2,3,5,6,7,8,9,10,11, 13a,14,14a,15,16,16a-hexadecahydrocyclopropa [e]pyrrolo[1,2-a][1,4] diazacyclopentadecin-2-yl 3,4-dihydroisoquinoline-2(1H)-carboxylate] registered an EC50 of less than 1 µM.

For `COc1ccc2c(O[C@@H]3C[C@H]4C(=O)N[C@]5(C(=O)NS(=O)(=O)C6CC6)C[C@H]5/C=C\CCCCC[C@H](CC(=O)N5CCCCC5)C(=O)N4C3)cc(-c3ccccn3)nc2c1C` [Compound 116, (2R,6R,14aR,16aS,Z)-N-(cyclopropylsulfonyl)-2-(7-methoxy-8-methyl-2-(pyridin-2-yl)quinolin-4-yloxy)-5, 16-dioxo-6-(2-oxo-2-(piperidin-1-yl)ethyl)-1,2,3,5,6,7,8,9,10,11, 13a,14,14a,15,16,16a-hexadecahydrocyclopropa [e]pyrrolo[1,2-a][1,4] diazacyclopentadecine-14a-carboxamide], the half-maximal effective concentration (EC50) was less than 1 µM.
